{"source": "patent US12686668B2", "about": "“Leukotriene synthesis inhibitors” (Naegis Pharmaceuticals Inc., priority 2019, dated 2026)", "key": {"[1]": {"experiment": "Rat ocular distribution model, retina after topical drop", "format": "in vivo", "settings": "Lewis rats, 10 μL topical drop", "experimental": "(§1) Eye drops were prepared by adding compounds at a theoretical concentration of 10 mg/mL to a 2 mL microcentrifuge tube before adding a stir bar and the selected formulation that consisted of (w/v) hydroxypropyl β-cyclodextrin (Trappsol) (20%), hydroxyl propyl methylcellulose (0.5%) and EDTA (1.6 mM) in phosphate buffered saline. Tubes containing compound in eye drop formulation were heated to 60-65° C. and stirred at least 4 hours to overnight. The tubes were removed from the heat bath and centrifuged at 10,000 ref for 5 minutes to clear the solution of any residual drug not in solution. The supernatant was removed from the tubes and one 10 μL sample was removed for HPLC analysis of solubilized by HPLC using an ACE C18 column (4.5 mm×150 mm, 5 m), eluted with acetonitrile/methanol/water mixture with H3PO4, pH 3.5 (50:30:20) with a flow rate of 2.5 mL/min. The solubilized concentration of each compound was calculated by interpolation from a standard curve based on reference standards solubilized in methanol when the assay was validated.\nCompounds were applied as a single 10 μL drop to rats and the aqueous humor, and the posterior segment of the eye (vitreous body and retina) were collected from each eye at the time point assigned after the eye was irrigated to remove any residual formulation present. Tissues were collected in pre-weighed collection tubes and the tissue weight was determined for each sample. An internal standard (IS) mixture containing a reference compound at a ratio of 1 μL to 4 mg tissue was added to samples, mixed and then diluted×4.25 in acetonitrile:methanol (9:1). Aqueous humour samples were vortex mixed for 10 s. The vitreous body & retina were vortex mixed 2 times each for 10 s, and further mixed for 6 min on a tabletop shaker at 750 rpm followed by final vortex mixing (10 s). All samples were centrifuged to pellet any particulate matter and the supernatant was transferred to LC vials. A 10 μL sample was then applied to the HPLC during LC/MS/MS analysis. A calibration curve for compounds (0.588-176.471 ng/mL) was prepared in rat plasma to estimate concentrations of compounds in each of the matrices analyzed using the area under curve (AUC) normalized to internal standard AUC for determining response. The assumption was made that 1 mg tissue is equivalent to 1 μL plasma. Concentrations measured in each tissue were then normalized to the amount of drug applied to account for differences in solubilized drug in each formulation. The average concentration and the standard deviation was determined based on “n”=number of eyes assessed, rather than the number of animals. […]"}, "[2]": {"system": "LTC4 production in MC/9 cells", "experiment": "MC/9 HPLC assay, inhibition of LTC4 production", "format": "cell-based", "settings": "Mus musculus; for inhibition at 3 µM: MC9, 3 μM, A23187 stimulated", "in_short": "(§2)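 MC/9 cells (3×10^6 in HBSS) pre-incubated 30 min with compound, then stimulated 20 min at room temperature with 1 μM A23187. After methanol quench and C18 solid-phase extraction, LTB4 and LTC4 quantified by HPLC against reference standards; inhibition relative to control samples.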"}, "[3]": {"experiment": "Solubilized concentration of compound in eye drop formulation (HPLC)", "format": "physicochemical", "settings": "eye drop formulation: 20% hydroxypropyl β-cyclodextrin, 0.5% HPMC, 1.6 mM EDTA in PBS", "experimental": "as §1\nIn Table 6, the data from distribution studies performed in Lewis rats show the concentration of each compound present in the retina 0.5 hr after the administration of a 10 μL drop of each topical formation is provided. Compounds were paired and individual formulations mixed at a ratio to make a mixture that contained ~2.5 mg/mL of each compound."}, "[4]": {"system": "endogenous leukotriene production", "settings": "estimated; cited from earlier work"}, "[5]": {"system": "LTB4 production in MC/9 cells", "experiment": "MC/9 HPLC assay, inhibition of LTB4 production", "format": "cell-based", "settings": "Mus musculus, MC9, Table 2 column 4, no concentration in head (1 μM according to b732), read-out: % Inhibition LTB4", "in_short": "as §2"}}, "data": [{"smiles": "CCC(C)(O)CCc1ccc(Oc2nc3c(SC)cccc3s2)c(OC)c1", "note": "(stereo not drawn) [Compound 191, 1-(3-methoxy-4-{[4-(methylsulfanyl)-1,3-benzothiazol-2-yl]oxy}phenyl)pentan-3-methyl-3-ol]", "values": [{"measurement": "Concentration of compound in retina 0.5 hr after administration per mg compound applied (Avg ± SD) n = 2", "setting": "[1]", "value": "4872 ± 1672 ng/mL per mg compound applied"}, {"measurement": "inhibition at 3 µM", "setting": "[2]", "value": "> 90", "unit": "%"}, {"measurement": "Concentration of compound in formulation", "setting": "[3]", "value": 1650, "unit": "µg/mL"}]}, {"smiles": "CC(c1cc2ccccc2s1)N(O)C(N)=O", "note": "(stereo not drawn) [Zileuton]", "values": [{"measurement": "Inhibition of endogenous leukotriene production", "setting": "[4]", "value": "26-86%"}]}, {"smiles": "CCC(O)CCc1ccc(Oc2nc3c(SC)cccc3s2)c(OC)c1", "note": "(stereo not drawn) [Compound 193, 1-(3-methoxy-4-{[4-(methylsulfanyl)-1,3-benzothiazol-2-yl]oxy}phenyl)pentan-3-ol]", "values": [{"measurement": "inhibition at 1 µM", "setting": "[5]", "value": "> 90", "unit": "%"}, {"measurement": "Concentration of compound in retina 0.5 hr after administration per mg compound applied (Avg ± SD) n = 2", "setting": "[1]", "value": "15690 ± 9863 ng/mL per mg compound applied"}, {"measurement": "inhibition at 3 µM", "setting": "[2]", "value": "70 to 90", "unit": "%"}, {"measurement": "inhibition at 1 µM", "setting": "[2]; MC9, Table 2 column 3, no concentration in head (1 μM according to b732), read-out: % Inhibition LTC4", "value": "> 90", "unit": "%"}, {"measurement": "Concentration of compound in formulation", "setting": "[3]", "value": 2530, "unit": "µg/mL"}]}, {"smiles": "CCC(O)(CCc1ccc(Oc2nc3c(SC)cccc3s2)cc1)C(F)(F)F", "note": "(stereo not drawn) [Compound 195, 1-(4-{[4-(methylsulfanyl)-1,3-benzothiazol-2-yl]oxy}phenyl)-3-(trifluoromethyl)pentan-3-ol]", "values": [{"measurement": "Concentration of compound in retina 0.5 hr after administration per mg compound applied (Avg ± SD) n = 2", "setting": "[1]", "value": "3343 ± 2.4 ng/mL per mg compound applied"}, {"measurement": "inhibition at 3 µM", "setting": "[2]", "value": "> 90", "unit": "%"}, {"measurement": "Concentration of compound in formulation", "setting": "[3]", "value": 3640, "unit": "µg/mL"}]}]}
